Where two headings read alike, the source gives them in different places. One block for each molecule: values may come before it.
What was measured:
[1] = target: T1, human ASCT1 neutral amino acid transporter (Homo sapiens, UniProt P43007); assay: radiolabeled amino acid uptake in ASCT1 RNA-injected Xenopus oocytes; assay type: cell-based; details: Amino Acid (1 mM); n = 5
T1 construct: expressed in transfected cells; host or cells: Xenopus laevis oocytes injected with in vitro transcribed RNA (pOTV vector)
T1 sequence (P43007 1-532): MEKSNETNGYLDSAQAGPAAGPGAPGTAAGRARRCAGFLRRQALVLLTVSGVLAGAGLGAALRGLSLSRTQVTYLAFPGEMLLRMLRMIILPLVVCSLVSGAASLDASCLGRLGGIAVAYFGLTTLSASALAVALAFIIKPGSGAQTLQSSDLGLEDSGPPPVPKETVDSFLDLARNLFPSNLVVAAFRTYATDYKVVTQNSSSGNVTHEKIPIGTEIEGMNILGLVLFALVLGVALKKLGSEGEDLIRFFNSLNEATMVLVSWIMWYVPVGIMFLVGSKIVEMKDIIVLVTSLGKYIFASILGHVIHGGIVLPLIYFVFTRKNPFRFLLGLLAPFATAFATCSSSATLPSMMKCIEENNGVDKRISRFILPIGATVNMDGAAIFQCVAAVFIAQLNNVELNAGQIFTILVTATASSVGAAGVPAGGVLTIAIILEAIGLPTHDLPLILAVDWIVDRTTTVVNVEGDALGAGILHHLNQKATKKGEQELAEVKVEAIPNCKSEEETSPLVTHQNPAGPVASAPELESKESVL
Text: (§1) Following the PCR, the product of the amplification reaction was purified using standard techniques (Saiki et al., 1988, Science 239: 487-491). The DNA then digested with the restriction enzymes KpnI and XbaI and then cloned into the polylinker of an oocyte transcription vector (POTV; see Wang el al., 1991, Nature 352: 729-731) that had been digested with KpnI and XbaI. Synthetic RNA was then transcribed in vitro from this clone using the method of Kavanaugh et al. (1992, J. Biol. Chem. 267: 22007-22009) employing bacteriophage T7 RNA polymerase (New England Biolabs, Beverly, Mass.). 20-50 nL of ASCT1 RNA (at a concentration of about 400 μg/mL) was injected into defolliculated stage V-VI Xenopus oocytes excised from female Xenopus laevis anesthetized by immersion in 3-aminobenzoic acid for 60 min. Excised oocytes were treated with collagenase II (Sigma Chemical Co., St. Louis, Mo.) in calcium-free Barth's saline solution [comprising 88 mM NaCl, 1 mM KCl, 2.4 mM NaHCO3, 0.82 mM MgSO4, 7.5 mM Tris-HCl (pH 7.6), 50 U/mL Nystatin (Sigma) and 0.1 mg/mL gentamycin (Sigma)] for 60 min., and then incubated overnight at 15° C. in 50% Leibowitz's L-15 media (Grand Island Biological Co. (GIBCO), Long Island, N.Y.). After overnight incubation the oocytes were mechanically defolliculated and then were injected with ASCT-1 RNA and incubated at 19° C. for 48 h (see Kim el al., 1991, Nature 352: 725-728 for further details of Xenopus oocyte preparation and microinjection).
(§2) Amino acid transport in such oocytes was assayed using [^3H] alanine, [^3H] serine or [^35S] cysteine (obtained from New England Nuclear, Boston, Mass.). Briefly, microinjected oocytes were […] at −60 mV using a Dagan TEV-200 clamp amplifier with an Axon Instruments (Foster City, Calif.) TL-1 A/D interface controlled by pCLAMP software (Axon Instruments) (see Kavanaugh et al., 1992, J. Biol. Chem. 267: 22007-22009 for a detailed review of this methodology) and continuously superfused with ND-96 buffer (consisting of 96 mM NaCl/2 mM KCl/1.8 mM CaCl2/1 mM MgCl2/5 mM HEPES, pH 7.5). For transport measurements, this solution was changed to a solution containing varying concentrations of the radiolabeled amino acids in ND-96 buffer.

[2] = test system: Water-injected Oocytes; assay: radiolabeled amino acid uptake in water-injected Xenopus oocytes; assay type: cell-based, Xenopus laevis; details: Amino Acid (1 mM); n = 5
Text: as §1
as §2, with “For transport measurements, this solution was changed to a solution containing varying concentrations of the radiolabeled amino acids in ND-96 buffer.” left out

[3] = target: T1, human ASCT1 neutral amino acid transporter; assay: amino acid-induced inward current in voltage-clamped ASCT1-injected Xenopus oocytes; assay type: cell-based; details: for Imax (maximal current): L-stereoisomer, current normalized to the maximum response obtained with L-alanine, mean ± standard error; for membrane response (inward Na+ currents) of ASCT1-injected oocytes: ND-96 buffer, clamped at −60 mV
Text: as §1, §2
More detailed analyses of ithe kinetics of amino acid influx were performed by least squares linear regression analysis of induced inward current ([I]) plotted as a function of substrate amino acid concentration ([S]), using the equation shown in the legend of Table II.

[4] = target: human EAAT1 excitatory amino acid transporter (Homo sapiens, UniProt P43003); assay: electrogenic amino acid uptake in EAAT1-expressing Xenopus oocytes; details: for electrogenic uptake in EAAT1-expressing oocytes: 1000 μM
Experimental: (§3) Such RNA preparations were each introduced into Xenopus oocytes as descnbed in Example 3 to enable expression therein. Amino acid uptake experiments were performed on such oocytes expressing each of the glutamate transporters, also as described in Example 3.
(§4) These experiments were performed essentially as described for the ASCT1 transporter in Example 3.

[5] = test system: neuronal cell; details: cited from earlier work
[6] = substrate: N[C@@H](CS)C(=O)O; assay: cells, lysate or membranes; details: other: inward current vs extracellular substrate concentration
Experimental: as §3, §4

Molecule: N[C@@H](CS)C(=O)O [L-cysteine]
rate of radiolabeled amino acid uptake, ASCT1 RNA-injected Oocytes [1]: 19.2 ± 5.9 pmol/min per oocyte | rate of radiolabeled amino acid uptake, Water-injected Oocytes [2]: 1.0 ± 0.3 pmol/min per oocyte | Imax (maximal current) [3]: 1.0 ± 0.04 | membrane response (inward Na+ currents) of ASCT1-injected oocytes [3]: hyperpolarization of the cell plasma membrane was produced | electrogenic uptake in EAAT1-expressing oocytes [4]: capable of being electrogenically transported

Molecule: N[C@@H](CCC(=O)O)C(=O)O [L-glutamate]
extracellular concentration causing neuronal cell death ([5]; Bouvier et al., 1992, Nicholls & Attwell): > 300 µM | extracellular concentration causing neuronal cell death ([5]; for 5 min., Choi et al., 1987): > 5 µM | inward electric current in EAAT1-expressing oocytes (stereospecificity) [4]: did not result in the generation of an inward electric current | inward current in EAAT1-expressing oocytes ([4]; 100 μM in ND-96): inward currents as high as several microamps | Km ([4]; inward current vs extracellular substrate concentration): 54 µM

B1: human EAAT1 excitatory amino acid transporter (Homo sapiens) (protein)
chain: MTKSNGEEPKMGGRMERFQQGVRKRTLLAKKKVQNITKEDVKSYLFRNAFVLLTVTAVIVGTILGFTLRPYRMSYREVKYFSFPGELLMRMLQMLVLPLIISSLVTGMAALDSKASGKMGMRAVVYYMTTTIIAVVIGIIIVIIIHPGKGTKENMHREGKIVRVTAADAFLDLIRNMFPPNLVEACFKQFKTNYEKRSFKVPIQANETLVGAVINNVSEAMETLTRITEELVPVPGSVNGVNALGLVVFSMCFGFVIGNMKEQGQALREFFDSLNEAIMRLVAVIMWYAPVGILFLIAGKIVEMEDMGVIGGQLAMYTVTVIVGLLIHAVIVLPLLYFLVTRKNPWVFIGGLLQALITALGTSSSSATLPITFKCLEENNGVDKRVTRFVLPVGATINMDGTALYEALAAIFIAQVNNFELNFGQIITISITATAASIGAAGIPQAGLVTMVIVLTSVGLPTDDITLIIAVDWFLDRLRTTTNVLGDSLGAGIVEHLSRHELKNRDVEMGNSVIEENEMKKPYQLIAQDNETEKPIDSETKM
Km [6]: 300 µM

Further lines, with some results ahead:

rate of radiolabeled amino acid uptake, ASCT1 RNA-injected Oocytes [1]: 18 ± 2 pmol/min per oocyte | Imax (maximal current) [3]: (1.0) | electrogenic uptake in EAAT1-expressing oocytes [4]: did not result in electrogenic uptake
Molecule: C[C@H](N)C(=O)O [L-alanine]
rate of radiolabeled amino acid uptake, Water-injected Oocytes [2]: 0.6 ± 0.1 pmol/min per oocyte | membrane response (inward Na+ currents) of ASCT1-injected oocytes [3]: hyperpolarization of the cell plasma membrane was produced

rate of radiolabeled amino acid uptake, ASCT1 RNA-injected Oocytes [1]: 20 ± 5.1 pmol/min per oocyte | Imax (maximal current) [3]: 1.2 ± 0.08 | electrogenic uptake in EAAT1-expressing oocytes [4]: did not result in electrogenic uptake
Molecule: N[C@@H](CO)C(=O)O [L-serine]
rate of radiolabeled amino acid uptake, Water-injected Oocytes [2]: 0.4 ± 0.1 pmol/min per oocyte | membrane response (inward Na+ currents) of ASCT1-injected oocytes [3]: hyperpolarization of the cell plasma membrane was produced

— US6537803B1, “Amino acid transporters and uses” (Oregon Health Sciences University, priority 1993, dated 2003)
